These results are taken from ChEMBL document CHEMBL2203152, “Systematic in vivo screening of a series of 1-propyl-4-arylpiperidines against dopaminergic and serotonergic properties in rat brain: a scaffold-jumping approach” (J Med Chem, 2012).

Assay [1] relates to Rattus norvegicus. Briefly: Reduction in spontaneous locomotor activity in Sprague-Dawley rat at 37 umol/kg, sc measured after 15 to 60 mins relative to saline-treated control. It is filed as functional. Set-up: scale not given: the % may be the effect or the level left.
In assay [2] the test system is Rattus norvegicus. Briefly: Decrease in 5-HIAA level in Sprague-Dawley rat striatum at 37 umol/kg, sc by HPLC analysis relative to saline-treated control. It is filed as functional. Further details: scale not given: the % may be the effect or the level left.
Assay [3] deals with Rattus norvegicus. Description: Increase in DOPAC level in Sprague-Dawley rat striatum at 37 umol/kg, sc by HPLC analysis relative to saline-treated control. The assay is classed as functional.
The species named for the next assay is Homo sapiens. Description: Selectivity ratio of Ki(app) for human low affinity Dopamine D2S receptor to Ki(app) for human high affinity Dopamine D2S receptor.
Assay [4] has as its target Sodium-dependent dopamine transporter (Homo sapiens) (UniProt Q01959). Briefly: Displacement of [3H]BTCP from human DAT at 1 uM by CEREP assay.
The target of assay [5] is 5-hydroxytryptamine receptor 6 (Homo sapiens, UniProt P50406). Briefly: Displacement of [3H]LSD from human 5-HT6 receptor. Background: Displacement assays read how much labelled ligand stays bound in the presence of the test substance.
Assay [6] has as its target 5-hydroxytryptamine receptor 2A (Homo sapiens, UniProt P28223). Description: Displacement of [3H]ketanserin from human 5-HT2A by CEREP assay. To be noted: read-out: Ki(app).
Assay [7] deals with Sodium-dependent serotonin transporter (Homo sapiens, UniProt P31645). Description: Displacement of [3H]imipramine from human SERT expressed in CHO cells by competition binding assay. It is filed as cell-based. The note with it: read-out: Ki(app).
The target of assay [8] is T1, Alpha-2A adrenergic receptor (Homo sapiens, UniProt P08913).
T1 sequence (P08913 whole entry): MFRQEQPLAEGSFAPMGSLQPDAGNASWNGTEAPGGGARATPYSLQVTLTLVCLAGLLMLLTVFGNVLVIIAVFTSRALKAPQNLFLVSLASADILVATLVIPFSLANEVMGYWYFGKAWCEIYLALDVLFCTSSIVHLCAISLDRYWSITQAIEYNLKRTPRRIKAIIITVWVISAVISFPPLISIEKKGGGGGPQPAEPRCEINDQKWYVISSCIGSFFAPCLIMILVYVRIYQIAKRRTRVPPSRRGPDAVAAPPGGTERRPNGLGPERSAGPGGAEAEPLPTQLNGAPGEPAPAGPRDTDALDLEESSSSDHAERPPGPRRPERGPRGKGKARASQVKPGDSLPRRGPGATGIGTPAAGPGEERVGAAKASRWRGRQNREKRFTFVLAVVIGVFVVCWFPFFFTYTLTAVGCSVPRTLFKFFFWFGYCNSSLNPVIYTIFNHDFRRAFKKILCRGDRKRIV
Description: Displacement of [3H]UK 14.304 from human adrenergic alpha2A receptor. The note with it: read-out: Ki(app).

Assay [9] concerns the target T2, D(2) dopamine receptor (Homo sapiens, UniProt P14416). Briefly: Displacement of [3H]7-OH-DPAT from human high affinity Dopamine D2S receptor by competition binding assay.
For assay [10], the system named is Rattus norvegicus. Description: Inhibition of MK-801-induced hyperlocomotion in sc dosed Sprague-Dawley rat sc measured after 15 to 60 mins relative to saline-treated control. The assay is classed as functional.
The target in assay [11] is T3, 5-hydroxytryptamine receptor 1A (Homo sapiens, UniProt P08908).
T3 sequence (P08908 whole entry): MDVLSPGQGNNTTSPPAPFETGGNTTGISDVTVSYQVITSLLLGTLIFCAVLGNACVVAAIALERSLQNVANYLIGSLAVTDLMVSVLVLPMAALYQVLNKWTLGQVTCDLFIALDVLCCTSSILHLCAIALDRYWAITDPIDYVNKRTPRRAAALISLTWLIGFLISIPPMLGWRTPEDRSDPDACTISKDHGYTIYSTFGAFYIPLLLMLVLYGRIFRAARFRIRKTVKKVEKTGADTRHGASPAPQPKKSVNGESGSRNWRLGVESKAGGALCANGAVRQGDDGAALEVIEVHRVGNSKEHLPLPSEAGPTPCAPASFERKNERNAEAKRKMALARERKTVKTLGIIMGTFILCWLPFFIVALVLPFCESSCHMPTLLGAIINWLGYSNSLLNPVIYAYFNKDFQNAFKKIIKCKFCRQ
Description: Displacement of [3H]8- OH-DPAT from human 5-HT1A by CEREP assay. To be noted: read-out: Ki(app).

Assay [12] has as its target T4, Amine oxidase [flavin-containing] A (Rattus norvegicus, UniProt P21396).
T4 sequence (P21396 whole entry): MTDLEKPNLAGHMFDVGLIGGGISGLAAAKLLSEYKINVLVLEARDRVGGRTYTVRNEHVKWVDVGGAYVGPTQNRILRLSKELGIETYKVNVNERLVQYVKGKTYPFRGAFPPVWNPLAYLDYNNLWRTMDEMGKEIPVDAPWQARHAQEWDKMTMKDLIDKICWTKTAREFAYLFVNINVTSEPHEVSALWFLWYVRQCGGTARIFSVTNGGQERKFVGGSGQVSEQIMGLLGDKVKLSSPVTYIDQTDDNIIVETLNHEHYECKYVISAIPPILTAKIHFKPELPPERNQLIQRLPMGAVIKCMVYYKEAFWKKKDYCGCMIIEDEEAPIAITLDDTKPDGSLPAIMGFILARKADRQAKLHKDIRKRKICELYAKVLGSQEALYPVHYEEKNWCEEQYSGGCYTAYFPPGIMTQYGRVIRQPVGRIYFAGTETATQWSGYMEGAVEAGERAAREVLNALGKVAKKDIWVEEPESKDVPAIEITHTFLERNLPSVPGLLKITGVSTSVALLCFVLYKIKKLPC
Description: Displacement of [3H]Ro 41-1049 from MAO-A in rat cerebral cortex by competition binding assay. It is filed as tissue-based.

The target of assay [13] is T2, D(2) dopamine receptor. Description: Displacement of [3H]methylspiperone from human low affinity Dopamine D2S receptor by competition binding assay.
In assay [14] the test system is Rattus norvegicus. Description: Increase in DOPAC level in Sprague-Dawley rat striatum at 33 umol/kg, sc by HPLC analysis relative to saline-treated control. The assay is classed as functional.
Assay [15] deals with Rattus norvegicus. Briefly: Inhibition of d-amphetamine-induced hyperlocomotion in sc dosed Sprague-Dawley rat sc measured after 15 to 60 mins relative to saline-treated control. It is filed as functional.
Assay [16] deals with T5, D(4) dopamine receptor (Homo sapiens) (UniProt P21917).
T5 sequence (whole entry): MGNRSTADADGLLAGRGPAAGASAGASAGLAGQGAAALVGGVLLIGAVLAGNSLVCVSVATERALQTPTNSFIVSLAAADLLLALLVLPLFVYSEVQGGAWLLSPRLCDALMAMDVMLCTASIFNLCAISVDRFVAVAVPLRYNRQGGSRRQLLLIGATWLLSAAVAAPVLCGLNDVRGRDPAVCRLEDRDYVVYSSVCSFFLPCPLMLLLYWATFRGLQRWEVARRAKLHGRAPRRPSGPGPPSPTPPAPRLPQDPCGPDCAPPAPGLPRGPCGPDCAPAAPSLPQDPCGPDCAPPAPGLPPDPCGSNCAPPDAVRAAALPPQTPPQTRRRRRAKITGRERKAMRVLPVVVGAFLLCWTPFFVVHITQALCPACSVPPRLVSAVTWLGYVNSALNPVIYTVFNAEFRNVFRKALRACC
Description: Displacement of [3H]methylspiperone from human dopamine D4 receptor at 1 uM by CEREP assay.

For assay [17], the system named is Rattus norvegicus. Description: Decrease in 5-HIAA level in Sprague-Dawley rat striatum at 33 umol/kg, sc by HPLC analysis relative to saline-treated control. Set-up: scale not given: the % may be the effect or the level left. The assay is classed as functional.
Assay [18] relates to Rattus norvegicus. Briefly: Reduction in spontaneous locomotor activity in Sprague-Dawley rat at 33 umol/kg, sc measured after 15 to 60 mins relative to saline-treated control. It is filed as functional. Further details: scale not given: the % may be the effect or the level left.
The subject of assay [19] is Rattus norvegicus. Briefly: Increase in DOPAC level in sc dosed Sprague-Dawley rat striatum by HPLC analysis. It is filed as functional.
For another assay, the target named is D(3) dopamine receptor (Homo sapiens, UniProt P35462). Description: Displacement of [3H]7-OH-DPAT from human dopamine D3 receptor by CEREP assay. To be noted: read-out: Ki(app).
Assay [20] relates to Rattus norvegicus. Briefly: Decrease in 5-HIAA level in Sprague-Dawley rat striatum at 2.4 umol/kg, sc by HPLC analysis relative to saline-treated control. It is filed as functional. Further details: scale not given: the % may be the effect or the level left.
Assay [21] concerns Rattus norvegicus. Briefly: Increase in DOPAC level in Sprague-Dawley rat striatum at 2.4 umol/kg, sc by HPLC analysis relative to saline-treated control. The assay is classed as functional.
Assay [22] has as its system Rattus norvegicus. Briefly: Reduction in spontaneous locomotor activity in Sprague-Dawley rat at 2.4 umol/kg, sc measured after 15 to 60 mins relative to saline-treated control. The assay is classed as functional. Set-up: scale not given: the % may be the effect or the level left.
In assay [23] the test system is Rattus norvegicus. Briefly: Reduction in spontaneous locomotor activity in Sprague-Dawley rat at 5.8 umol/kg, sc measured after 15 to 60 mins relative to saline-treated control. The assay is classed as functional. Further details: scale not given: the % may be the effect or the level left.
Assay [24] relates to Rattus norvegicus. Briefly: Increase in DOPAC level in Sprague-Dawley rat striatum at 5.8 umol/kg, sc by HPLC analysis relative to saline-treated control. The assay is classed as functional.
The test system of assay [25] is Rattus norvegicus. Description: Decrease in 5-HIAA level in Sprague-Dawley rat striatum at 5.8 umol/kg, sc by HPLC analysis relative to saline-treated control. The assay is classed as functional. Further details: scale not given: the % may be the effect or the level left.

T2 sequence (P14416 whole entry): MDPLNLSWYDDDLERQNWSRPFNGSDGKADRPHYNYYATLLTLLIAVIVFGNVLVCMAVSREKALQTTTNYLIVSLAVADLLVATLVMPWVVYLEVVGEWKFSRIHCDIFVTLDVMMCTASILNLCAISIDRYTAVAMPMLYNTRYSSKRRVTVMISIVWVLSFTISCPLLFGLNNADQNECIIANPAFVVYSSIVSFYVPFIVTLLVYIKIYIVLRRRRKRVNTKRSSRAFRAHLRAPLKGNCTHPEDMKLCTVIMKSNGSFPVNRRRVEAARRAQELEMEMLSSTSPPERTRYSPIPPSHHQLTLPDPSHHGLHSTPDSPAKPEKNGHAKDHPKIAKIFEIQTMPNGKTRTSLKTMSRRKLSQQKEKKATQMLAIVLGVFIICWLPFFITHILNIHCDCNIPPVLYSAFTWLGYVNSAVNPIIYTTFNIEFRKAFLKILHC
Sequence of 5-hydroxytryptamine receptor 2A (P28223 whole entry): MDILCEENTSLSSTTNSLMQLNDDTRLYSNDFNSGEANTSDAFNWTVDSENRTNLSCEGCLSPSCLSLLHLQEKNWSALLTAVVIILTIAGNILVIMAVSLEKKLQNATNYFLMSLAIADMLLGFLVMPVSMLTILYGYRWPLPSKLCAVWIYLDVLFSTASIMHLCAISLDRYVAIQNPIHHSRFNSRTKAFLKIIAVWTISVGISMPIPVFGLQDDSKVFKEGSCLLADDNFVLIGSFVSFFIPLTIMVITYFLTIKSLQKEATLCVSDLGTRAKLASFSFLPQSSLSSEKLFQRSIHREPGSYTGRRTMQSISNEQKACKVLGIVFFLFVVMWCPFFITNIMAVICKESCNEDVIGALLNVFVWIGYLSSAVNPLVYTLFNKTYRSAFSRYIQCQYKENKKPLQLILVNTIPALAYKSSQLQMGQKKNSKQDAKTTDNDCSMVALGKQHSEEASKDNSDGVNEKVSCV
Sequence of Sodium-dependent serotonin transporter (P31645 whole entry): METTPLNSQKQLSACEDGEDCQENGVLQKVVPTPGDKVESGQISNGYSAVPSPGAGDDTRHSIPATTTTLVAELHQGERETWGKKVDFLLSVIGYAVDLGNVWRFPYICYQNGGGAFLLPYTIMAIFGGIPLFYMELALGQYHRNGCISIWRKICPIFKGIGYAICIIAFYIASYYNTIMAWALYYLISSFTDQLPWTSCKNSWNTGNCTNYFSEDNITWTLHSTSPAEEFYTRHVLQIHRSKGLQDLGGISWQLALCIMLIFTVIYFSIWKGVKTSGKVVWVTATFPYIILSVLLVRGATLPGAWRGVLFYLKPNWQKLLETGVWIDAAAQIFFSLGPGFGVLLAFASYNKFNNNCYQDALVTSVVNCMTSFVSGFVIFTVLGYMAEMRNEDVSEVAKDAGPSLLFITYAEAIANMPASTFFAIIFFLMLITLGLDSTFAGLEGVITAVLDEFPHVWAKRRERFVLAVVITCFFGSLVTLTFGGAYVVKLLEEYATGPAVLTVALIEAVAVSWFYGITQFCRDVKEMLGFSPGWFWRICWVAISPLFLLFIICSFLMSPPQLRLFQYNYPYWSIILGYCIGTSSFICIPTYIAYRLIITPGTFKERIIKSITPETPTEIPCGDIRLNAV
Sequence of 5-hydroxytryptamine receptor 6 (P50406 whole entry): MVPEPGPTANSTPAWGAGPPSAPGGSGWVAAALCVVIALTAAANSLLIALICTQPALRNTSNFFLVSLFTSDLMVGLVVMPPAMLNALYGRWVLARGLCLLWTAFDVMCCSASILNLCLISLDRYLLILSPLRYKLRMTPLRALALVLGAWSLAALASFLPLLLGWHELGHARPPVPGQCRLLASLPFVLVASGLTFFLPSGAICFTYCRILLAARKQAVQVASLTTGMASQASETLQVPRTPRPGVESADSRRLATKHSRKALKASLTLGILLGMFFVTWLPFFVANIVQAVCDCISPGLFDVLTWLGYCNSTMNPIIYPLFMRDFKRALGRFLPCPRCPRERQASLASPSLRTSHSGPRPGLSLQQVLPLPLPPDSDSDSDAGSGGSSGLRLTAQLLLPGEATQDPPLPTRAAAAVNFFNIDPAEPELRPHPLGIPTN
Sequence of D(3) dopamine receptor (P35462 whole entry): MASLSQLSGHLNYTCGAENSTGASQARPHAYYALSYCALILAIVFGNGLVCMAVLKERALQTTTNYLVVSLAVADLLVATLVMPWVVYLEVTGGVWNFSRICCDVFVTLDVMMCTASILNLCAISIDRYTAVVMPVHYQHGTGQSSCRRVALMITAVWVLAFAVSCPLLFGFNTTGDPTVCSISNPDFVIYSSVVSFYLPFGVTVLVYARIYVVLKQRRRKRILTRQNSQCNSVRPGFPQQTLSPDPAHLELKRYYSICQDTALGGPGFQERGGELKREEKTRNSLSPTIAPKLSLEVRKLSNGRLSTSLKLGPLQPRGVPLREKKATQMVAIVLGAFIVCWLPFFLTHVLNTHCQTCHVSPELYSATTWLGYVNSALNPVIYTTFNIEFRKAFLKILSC
Sequence of Sodium-dependent dopamine transporter (Homo sapiens) (Q01959 whole entry): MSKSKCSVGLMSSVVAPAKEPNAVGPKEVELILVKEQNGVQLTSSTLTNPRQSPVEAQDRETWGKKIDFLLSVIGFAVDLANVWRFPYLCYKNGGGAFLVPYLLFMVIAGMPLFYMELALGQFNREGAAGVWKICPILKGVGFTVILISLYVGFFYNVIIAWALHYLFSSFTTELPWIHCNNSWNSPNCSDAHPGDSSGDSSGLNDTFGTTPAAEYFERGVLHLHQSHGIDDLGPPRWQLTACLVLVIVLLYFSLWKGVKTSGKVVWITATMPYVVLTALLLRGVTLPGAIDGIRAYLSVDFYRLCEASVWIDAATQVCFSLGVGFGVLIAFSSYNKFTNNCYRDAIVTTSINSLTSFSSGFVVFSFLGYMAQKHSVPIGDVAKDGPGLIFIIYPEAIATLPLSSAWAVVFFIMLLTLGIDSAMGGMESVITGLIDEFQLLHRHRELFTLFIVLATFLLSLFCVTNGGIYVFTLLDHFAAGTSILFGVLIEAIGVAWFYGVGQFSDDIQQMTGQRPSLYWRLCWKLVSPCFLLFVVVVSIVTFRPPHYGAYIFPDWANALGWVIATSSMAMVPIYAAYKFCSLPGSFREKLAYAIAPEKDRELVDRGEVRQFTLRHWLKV

As for `O=C(NCCN1CCOCC1)c1ccc(Cl)cc1` [MOCLOBEMIDE], the results for the Activity with Rattus norvegicus [1], in the assay with Rattus norvegicus [2] and in the assay with Rattus norvegicus [3] were 164%, 81% and 18%, respectively.

The term inhibition denotes the change of the read-out against control, counted positive when it falls. A word on the IC50: it is the concentration that gives 50% inhibition. What is called ED50 is the dose at which the effect has come halfway, by size or by number of responders. For `CCCN1CCC(n2c(=O)[nH]c3cc(Cl)ccc32)CC1`, the Ratio Ki(app) in the assay filed under Homo sapiens was determined as 0.8. Further, the results for the inhibition in assay [4] and in assay [16] were 15% and 17%, respectively. The IC50 in [5] and in assay [12] was above 580 µM throughout. In addition, the Ki worked out at 21.6 µM in assay [6]; 3.51 µM in assay [7]; 17.2 µM in assay [8]; 0.456 µM on D(2) dopamine receptor [9]; 5.71 µM in [11]; 0.371 µM at D(2) dopamine receptor [13]. In addition, the Ki at D(3) dopamine receptor was 2.52 µM. The “inhibition (INH)” value with Rattus norvegicus [10] is 42%; in the assay with Rattus norvegicus [15], 4%. The Activity came out at 334% in the assay with Rattus norvegicus [14], 101% in the assay with Rattus norvegicus [17] and 54% in the assay with Rattus norvegicus [18]. Also, in the assay on Rattus norvegicus [19], it took a dose of 7 µmol/kg to reach the 50% effect level (ED50).

`Cc1nc2n(c(=O)c1CCN1CCC(c3noc4cc(F)ccc34)CC1)CCCC2` [RISPERIDONE]: the Activity in the assay on Rattus norvegicus [20] amounted to 115%; in the assay on Rattus norvegicus [21], 347%; in the assay on Rattus norvegicus [22], 11%. Besides, the ED50 with Rattus norvegicus [19] worked out at 0.5 µmol/kg.

On to `O=c1[nH]c2ccccc2n1C1CCN(CCCC(c2ccc(F)cc2)c2ccc(F)cc2)CC1` [PIMOZIDE], for which the Activity in the assay with Rattus norvegicus [23] was 7.3%; with Rattus norvegicus [24], 416%; with Rattus norvegicus [25], 101%. The compound also showed an ED50 in the assay on Rattus norvegicus [19] of 1.6 µmol/kg.
